Test results reported in patent publication US10548313B2, “Acetyl-CoA carboxylase modulators” (Monsanto Technology LLC, priority 2013, dated 2020).
Read-outs that look alike come from different tables or passages of the source.

Experiments:
[1] = target: Ustilago maydis acetyl CoA carboxylase (ACCase) (Mycosarcoma maydis (Ustilago maydis), UniProt A0A0D1DYD5); assay: ACCase enzymatic assay (coupled PK/LDH, NADH OD340); assay type: biochemical
Experimental: Ustilago maydis acetyl CoA carboxylase (ACCase) was cloned, expressed, and purified as described (Weatherly et al, Biochem. J., 2004) and the test compounds were tested in a 96-well plate format. Primary in vitro screening consisted of obtaining dose response data at 100, 33, 10, and 1 μM inhibitor. Actives in the primary screen were re-tested to establish IC50 values.
Direct detection of the conversion of acetyl CoA to malonyl CoA by ACCase was not feasible, but during this process ATP is converted to ADP which allowed for detection through a standard reaction coupling with ADP recycling to the oxidation of NADH. Thus, ACCase activity was measured via kinetic OD340 measurements of the conversion of NADH to NAD in a coupled reaction involving the conversion of phosphoenolpyruvate (PEP) to lactate.
The complete 200 ul reaction mixture contained 52.5 mM HEPES (pH8), 2.625 mM MgCl2, 1 mM ATP, 0.525 mM DTT, 11 mM NaHCO3, 1% DMSO with or without inhibitor, 1× pyruvate kinase/lactate dehydrogenase (PK/LDH), 0.3 mM NADH, 0.5 mM PEP, and 5 μg ACCase. The reactions were incubated at 30° C. for 10 minutes and then initiated by the addition of 0.33 mM acetyl CoA. The initiated reactions were read immediately via plate reader at OD340 and kinetic readings were acquired every 20 s for 15 minutes while keeping the temperature at 30° C.
A slope of the kinetic curve was determined by using the 2 to 7 minute data which was then calculated as percent inhibition relative to the no inhibitor control.
The primary screens were conducted in duplicate and the IC50's conducted in triplicate. Averages were reported along with standard deviation calculation to generate error bars.
Each plate contained its own controls and consisted of a DMSO only control, 5-fold titration series of soraphen from 2 μM to 3.2 nM, and an ADP coupled reaction control.

[2] = tested on: Saccharomyces cerevisiae; assay: Yeast growth inhibition assay; assay type: cell-based; conditions: for inhibition at 3.7 µM: read-out: S. cerevisiae % growth inhibition at 48 hours, 3.7 μM; for inhibition at 11.1 µM: read-out: S. cerevisiae % growth inhibition at 48 hours, 11.1 μM; for inhibition at 33.3 µM: read-out: S. cerevisiae % growth inhibition at 48 hours, 33.3 μM; for inhibition at 100 µM: read-out: S. cerevisiae % growth inhibition at 48 hours, 100 μM
Experimental: Yeast cells (Ade2 strain) were grown in liquid YPD (1% yeast extract, 2% peptone, 2% dextrose) for 16 hours at 30° C. from previously sub-cultured plates of Saccharomyces cerevisiae. The OD600 of the overnight culture was checked via spectrophotometer and diluted to a concentration of 2×10^4 cells/ml.
Chemistry stocks were dissolved in DMSO to a concentration of 10 mM. Chemistry stocks were further diluted in a 96-well stock plate to obtain final concentrations of 100, 33, 10 and 1 μM in 1% DMSO. The final concentrations of the soraphen positive controls were 400, 40, and 3.2 nM. The negative controls on each plate included a background subtraction control containing yeast and 1% DMSO (without chemistry) and a second contamination control containing YPD (with no yeast) and 1% DMSO (without chemistry).
98 μl liquid YPD was added to 2 μl diluted stock of DMSO per well and mixed thoroughly. After mixing, 100 μl of the diluted yeast solution was added to bring the final yeast concentration to 1×10^4 cells/ml or 2000 cells per well. An initial spectrophotometric reading at OD600 was conducted on the entire plate and served as the 0 hour time point used to subtract any background. […] […] […] All experiments were conducted in triplicate. Averages were reported along with standard deviation calculation to generate error bars. Each plate contained its own controls and consisted of inoculated+DMSO, non-inoculated+DMSO, and a titration series of soraphen at 400, 40, and 3.2 nM.

[3] = tested on: Collectotrichum graminicola; assay: Fungal growth inhibition assay, Collectotrichum graminicola; assay type: cell-based; conditions: Colletotrichum graminicola, 48 hours, read-out: C. graminicola % growth inhibition at 48 hours
Experimental: (§1) Spores were isolated from previously sub-cultured plates of Botrytis cinerea, Phytophthora capsici, Fusarium moniliforme, Fusarium viguliforme, Collectotrichum graminicola, and Diplodia maydis. All spores were filtered and collected in a sterile glass bowl to isolate the spores from the mycelia. The isolation and sub-culture plate condition for each pathogen is described below.
Spore isolation for C. graminicola: A 1-2 week old oatmeal agar (pre-mix) plate was removed from 26° C. incubator with a light/dark 12 hour cycle and the mycelia were treated with 10-15 ml of filter sterilized distilled water. The mycelia were scraped to re-suspend the spores. The spores were then collected in a sterile filter bowl containing a piece of sterile cheesecloth and poured into a conical tube.
(§2) After spore isolation, pathogen spores were counted on a hemocytometer to calculate the spores/ml. In 17% V8 liquid media containing 3 g/L CaCO3, isolated spores were diluted to individual concentrations based on the growth curves at 48 hours of each pathogen. The spore concentrations for each pathogen were as follows: B. cinerea—10,000 sp/ml; P. capsici—300 sp/ml; F. monliforme—500 sp/ml; F. virguliforme—500 sp/ml; C. graminicola—3,000 sp/ml; and D. maydis—3,000 sp/ml.
(§3) Chemistry stocks were dissolved in DMSO at 2.5 mg/ml. Chemistry was diluted in a 96-well stock plate in five-fold dilutions to obtain a final concentration of 50, 10, and 2 ppm in vitro. The final concentration of the positive control after the five-fold dilutions was as follows: soraphen—0.5, 0.1, and 0.02 ppm. Negative controls on each plate included 2% DMSO, water containing spores and media, and a blank for background subtraction.
(§4) In a 96-well plate the spore solution, chemistries, and controls were combined to make the final solution concentrations mentioned above. Upon addition of the chemistry, an OD600 reading was done to assess chemical precipitation. The 96-well plates were incubated in plastic tubs containing wet paper towels under the following conditions, 25° C. in the dark for P. capsici and B. cinerea or 26° C. with light/dark cycle for C. graminicola, D. maydis, F. virguliforme, F. monliforme. Plate readings were repeated at 24 and 48 hrs. Visual ratings were performed at 24 and 48 hrs to check for precipitation and confirm efficacy. Visual and OD600 ratings of the chemistry at 48 hours were compared to the 2% DMSO control to determine the percent of pathogen growth inhibition.

[4] = tested on: Diplodia maydis; assay: Fungal growth inhibition assay, Diplodia maydis; assay type: cell-based; conditions: 48 hours, read-out: D. maydis % growth inhibition at 48 hours
Experimental: as §1
Spore isolation for D. maydis: A 3-4 week old PDA (pre-mix) plate was removed from 26° C. incubator with a light/dark 12 hour cycle and the mycelia were treated with 6-7 ml of sterile distilled water, scraped into a sterile petri dish, and smashed to open the pycnidia. The spores were then collected in a sterile filter bowl containing a fluted piece of filter paper and poured into a conical tube.
as §2, §3, §4

[5] = tested on: Phytophthora capsici; assay: Fungal growth inhibition assay, Phytophthora capsici; assay type: cell-based; conditions: 48 hours, read-out: P. capsici % growth inhibition at 48 hours
Excerpt: as §1
Spore isolation for P. capsici: Three to five days prior to the assay a 2-3 week old V8 (17%)+CaCO3 (3 g/L)+20 g agar plate was removed from a dark 25° C. incubator and cut up into small chunks. One plate was separated into two deep well plates and rinsed with sterile distilled water three times. The cut up pieces were incubated under light in a sterile filter hood with 25 ml of sterile distilled water. On the day of the assay the water was removed and 5-7 ml of fresh sterile distilled water was added. One plate was incubated at 4° C. for 45-60 minutes and then placed at room temperature for about 45-60 minutes. The spores were collected in a sterile filter bowl containing a fluted piece of filter paper. The spores were vortexed in a conical tube for 30-60 seconds to remove the flagella of the zoospores after isolation.
as §2, §3, §4

[6] = tested on: Botrytis cinerea; assay: Fungal growth inhibition assay, Botrytis cinerea; assay type: cell-based; conditions: 48 hours, read-out: B. cinerea % growth inhibition at 48 hours
Excerpt: as §1
Spore isolation for B. cinerea: A 2-3 week old V8 (17%)+CaCO3 (3 g/L)+20 g agar plate was removed from room temperature and the mycelia were treated with 5-10 ml of filter sterilized Triton X 100 (.05%). The mycelia were scraped to re-suspend the spores. The spores were then collected in a sterile filter bowl containing a fluted piece of filter paper and poured into a conical tube.
as §2, §3, §4

[7] = Table 1A, values marked a are a result of two or more experiments, read-out: ACCase Inhibitory Activity IC50

Sequence of Ustilago maydis acetyl CoA carboxylase (ACCase) (A0A0D1DYD5 1-2185): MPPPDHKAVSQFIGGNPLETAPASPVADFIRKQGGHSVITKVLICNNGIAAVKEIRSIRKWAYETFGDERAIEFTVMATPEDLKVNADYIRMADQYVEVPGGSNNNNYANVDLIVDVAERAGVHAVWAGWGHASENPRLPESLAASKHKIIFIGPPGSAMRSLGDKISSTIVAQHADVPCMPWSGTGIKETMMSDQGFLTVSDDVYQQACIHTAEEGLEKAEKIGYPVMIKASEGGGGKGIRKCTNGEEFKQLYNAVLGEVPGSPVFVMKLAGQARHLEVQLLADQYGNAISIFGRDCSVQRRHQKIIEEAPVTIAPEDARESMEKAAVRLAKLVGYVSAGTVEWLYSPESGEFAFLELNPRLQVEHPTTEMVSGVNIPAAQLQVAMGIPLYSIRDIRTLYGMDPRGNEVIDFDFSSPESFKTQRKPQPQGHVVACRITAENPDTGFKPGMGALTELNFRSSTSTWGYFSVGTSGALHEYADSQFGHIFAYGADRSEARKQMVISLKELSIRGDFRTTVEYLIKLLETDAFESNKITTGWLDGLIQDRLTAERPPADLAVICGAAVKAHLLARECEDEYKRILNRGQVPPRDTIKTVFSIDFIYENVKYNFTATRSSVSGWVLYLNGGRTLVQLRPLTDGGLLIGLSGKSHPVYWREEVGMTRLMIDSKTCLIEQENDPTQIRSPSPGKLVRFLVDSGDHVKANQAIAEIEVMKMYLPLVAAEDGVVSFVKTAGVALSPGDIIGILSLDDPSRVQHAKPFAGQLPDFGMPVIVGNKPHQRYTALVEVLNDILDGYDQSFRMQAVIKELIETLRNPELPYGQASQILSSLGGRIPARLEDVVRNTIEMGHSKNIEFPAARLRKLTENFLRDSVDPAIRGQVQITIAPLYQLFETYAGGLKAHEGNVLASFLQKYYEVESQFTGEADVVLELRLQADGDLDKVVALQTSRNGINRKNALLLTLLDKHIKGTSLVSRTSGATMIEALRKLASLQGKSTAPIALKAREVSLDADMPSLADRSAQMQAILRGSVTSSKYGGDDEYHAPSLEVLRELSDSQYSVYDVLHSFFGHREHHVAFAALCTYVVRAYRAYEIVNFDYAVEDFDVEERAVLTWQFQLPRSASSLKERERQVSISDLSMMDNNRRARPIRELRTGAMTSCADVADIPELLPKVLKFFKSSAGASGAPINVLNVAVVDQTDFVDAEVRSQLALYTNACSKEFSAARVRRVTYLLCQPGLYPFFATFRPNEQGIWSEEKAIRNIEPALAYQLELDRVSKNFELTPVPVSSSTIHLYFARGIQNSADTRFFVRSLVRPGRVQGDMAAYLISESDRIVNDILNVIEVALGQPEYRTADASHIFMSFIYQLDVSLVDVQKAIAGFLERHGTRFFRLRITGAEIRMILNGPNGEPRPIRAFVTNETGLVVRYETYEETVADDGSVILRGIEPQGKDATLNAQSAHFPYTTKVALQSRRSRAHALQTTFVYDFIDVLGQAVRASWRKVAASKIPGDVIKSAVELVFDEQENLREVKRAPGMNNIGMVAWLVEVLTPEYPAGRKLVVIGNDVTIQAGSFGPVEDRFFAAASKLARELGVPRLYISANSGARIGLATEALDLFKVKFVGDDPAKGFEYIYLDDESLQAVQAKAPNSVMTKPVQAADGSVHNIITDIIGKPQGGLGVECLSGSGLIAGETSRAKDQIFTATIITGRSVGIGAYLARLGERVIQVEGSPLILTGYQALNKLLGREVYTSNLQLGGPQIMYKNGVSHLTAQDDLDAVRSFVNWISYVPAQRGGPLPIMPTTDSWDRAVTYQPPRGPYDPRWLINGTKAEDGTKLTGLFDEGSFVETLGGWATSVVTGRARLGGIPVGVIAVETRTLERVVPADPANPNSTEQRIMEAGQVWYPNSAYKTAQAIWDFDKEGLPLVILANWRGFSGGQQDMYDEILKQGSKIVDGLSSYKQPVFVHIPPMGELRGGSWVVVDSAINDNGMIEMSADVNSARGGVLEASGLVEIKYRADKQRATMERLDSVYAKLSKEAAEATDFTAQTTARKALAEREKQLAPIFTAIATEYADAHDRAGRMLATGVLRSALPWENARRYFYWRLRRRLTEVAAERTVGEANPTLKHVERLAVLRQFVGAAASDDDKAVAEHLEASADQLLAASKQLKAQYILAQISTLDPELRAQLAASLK

Row | Structure (SMILES) | IC50 ([1]; Table 1B, racemate vs single enantiomers, read-out: ACCase Inhibitory Activity of Racemic Mixtures and Single Enantiomers IC50) [nM] | inhibition at 3.7 µM [2] [%] | inhibition at 11.1 µM [2] [%] | inhibition at 33.3 µM [2] [%] | inhibition at 100 µM [2] [%] | inhibition at 2 ppm [3] [%] | inhibition at 10 ppm [3] [%] | inhibition at 50 ppm [3] [%] | IC50 [1, 7] [nM] | inhibition at 2 ppm [4] [%] | inhibition at 10 ppm [4] [%] | inhibition at 50 ppm [4] [%] | inhibition at 2 ppm [5] [%] | inhibition at 10 ppm [5] [%] | inhibition at 50 ppm [5] [%] | inhibition at 2 ppm ([6]; 2 ppm) [%] | inhibition at 10 ppm ([6]; 10 ppm) [%]
1 | N#Cc1c(C(F)(F)F)cc(-c2cccs2)nc1SC(C(=O)O)c1ccccc1 (racemic) [Formula Ia-ii, 2-((3-cyano-6-(thiophen-2-yl)-4-(trifluoromethyl)pyridin-2-yl)thio)-2-phenylacetic acid] | 2020 | 7 | 0 | 12 | 51 |  |  |  |  |  |  |  |  |  |  |  | 
2 | N#Cc1c(-c2ccc(Cl)cc2)cc(-c2cccs2)nc1SC(C(=O)O)c1ccccc1 (stereo not shown) [Formula Ia-i, 2-((4-(4-chlorophenyl)-3-cyano-6-(thiophen-2-yl)pyridin-2-yl)thio)-2-phenylacetic acid] |  |  |  |  |  | 28 | 72 | 92 | 370 | 3 | 57 | 65 |  |  |  |  | 
3 | N#Cc1c(-c2ccccc2)cc(-c2cccs2)nc1SC(C(=O)O)c1ccccc1 (stereo not shown) [Formula Ia-iv, 2-((3-cyano-4-phenyl-6-(thiophen-2-yl)pyridin-2-yl)thio)-2-phenylacetic acid] |  |  |  |  |  | 5 | 41 | 76 | 492 |  |  |  | 0 | 11 | 90 |  | 
4 | COc1ccc(-c2cc(C(F)(F)F)c(C#N)c(SC(C(=O)O)c3ccccc3)n2)cc1OC (stereo not shown) [Formula Ia-ix, 2-((3-cyano-6-(3,4-dimethoxyphenyl)-4-(trifluoromethyl)pyridin-2-yl)thio)-2-phenylacetic acid] |  |  |  |  |  | 5 | 17 | 72 | 1600 | 32 | 37 | 70 | 10 | 39 | 34 |  | 
5 | COc1ccc(-c2cc(-c3cccs3)nc(SC(C(=O)O)c3ccccc3)c2C#N)cc1 (stereo not shown) [Formula Ia-v, 2-((3-cyano-4-(4-methoxyphenyl)-6-(thiophen-2-yl)pyridin-2-yl)thio)-2-phenylacetic acid] |  |  |  |  |  | 0 | 32 | 79 | 119 | 0 | 61 | 52 |  |  |  |  | 
6 | N#Cc1c(SC(C(=O)O)c2ccccc2)nc(-c2cccs2)c2c1CCCC2 (stereo not shown) [Formula Ia-vii, 2-((4-cyano-1-(thiophen-2-yl)-5,6,7,8-tetrahydroisoquinolin-3-yl)thio)-2-phenylacetic acid] |  |  |  |  |  | 11 | 19 | 71 | 3800 | 11 | 46 | 64 | 0 | 9 | 100 |  | 
7 | COc1ccc(-c2cc(C(F)(F)F)c(C#N)c(SC(C(=O)O)c3ccccc3)n2)c(OC)c1 (stereo not shown) [Formula Ia-viii, 2-((3-cyano-6-(2,4-dimethoxyphenyl)-4-(trifluoromethyl)pyridin-2-yl)thio)-2-phenylacetic acid] |  | 6 | 23 | 62 | 100 |  |  |  | 1720 |  |  |  |  |  |  |  | 
8 | N#Cc1c(SC(C(=O)O)c2ccccc2)nc2c(c1-c1cccs1)CCCC2 (stereo not shown) [Formula Ia-xiii, 2-((3-cyano-4-(thiophen-2-yl)-5,6,7,8-tetrahydroquinolin-2-yl)thio)-2-phenylacetic acid] |  |  |  |  |  |  |  |  | 274 | 20 | 13 | 40 |  |  |  |  | 
9 | COc1ccc(-c2cc(-c3ccc[s+]3[O-])nc(OC(C(=O)O)c3ccccc3)c2C#N)cc1 (stereo not shown) [Formula Ia-xxviii, 2-((3-cyano-4-(4-methoxyphenyl)-6-(1-oxidothiophen-2-yl)pyridin-2-yl)oxy)-2-phenylacetic acid] |  |  |  |  |  |  |  |  | 196 |  |  |  |  |  |  | 14 | 27
